Measurements from PubChem BioAssay AID248 (DTP/NCI, 2004).
Inconclusive results and toxic doses are left out. Cut-off read from the data, not from the text of the source: active = T/C of 150% or more; inactive = T/C below 125%.

System: L1210 leukemia ip in BDF1 mice, survival T/C
Test: NCI In Vivo Anticancer Drug Screen. Data for tumor model L1210 Leukemia (intraperitoneal) in B6D2F1 (BDF1) mice
Settings: endpoint: mean survival time, higher = longer survival
Procedure, shortened: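 Each compound was tested against a transplantable tumor grown in mice. The endpoint was survival, with treated animals benchmarked against vehicle controls as a simple ratio.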

[1] = dose: 100.0 mg/kg/injection, schedule: Q01DX009 (ip), vehicle: saline with Tween-80
[2] = dose: 100.0 mg/kg/injection, schedule: Q04DX003 (ip), vehicle: saline with Tween-80
[3] = dose: 200.0 mg/kg/injection, schedule: Q01DX009 (ip), vehicle: saline with Tween-80
[4] = dose: 200.0 mg/kg/injection, schedule: Q04DX003 (ip), vehicle: saline with Tween-80
[5] = dose: 400.0 mg/kg/injection, schedule: Q04DX003 (ip), vehicle: saline with Tween-80

Measured: T/C

CN(C)CCC(CCC(=O)O)(C(=O)O)c1ccccc1 (stereo not drawn)
inactive: dose: 75.0 mg/kg/injection, schedule: Q01DX001 (ip), vehicle: saline 98 % of control | dose: 150.0 mg/kg/injection, schedule: Q01DX001 (ip), vehicle: saline 96 % of control | dose: 300.0 mg/kg/injection, schedule: Q01DX001 (ip), vehicle: saline 90 % of control

Cc1ccc(CNc2ccc([N+](=O)[O-])cc2)cc1
inactive: dose: 50.0 mg/kg/injection, schedule: Q01DX009 (ip), vehicle: saline with Tween-80 92 % of control | [1] 103 % of control | [2] 93 % of control | [3] 97 % of control | [4] 101 % of control | [5] 88 % of control

CC(=O)c1cc2cc(Cl)cc(Cl)c2oc1=O
inactive: [1] 94 % of control | dose: 100.0 mg/kg/injection, schedule: Q04DX002 (ip), vehicle: saline with Tween-80 95 % of control | [3] 91 % of control | dose: 200.0 mg/kg/injection, schedule: Q04DX002 (ip), vehicle: saline with Tween-80 100 % of control | dose: 400.0 mg/kg/injection, schedule: Q04DX002 (ip), vehicle: saline with Tween-80 92 % of control

COc1ccc([N+](=O)[O-])cc1NC(=O)C(Cl)Cl
inactive: dose: 100.0 mg/kg/injection, schedule: Q01DX001 (ip), vehicle: carboxymethylcellulose (CMC) 99 % of control | dose: 200.0 mg/kg/injection, schedule: Q01DX001 (ip), vehicle: carboxymethylcellulose (CMC) 100 % of control | dose: 400.0 mg/kg/injection, schedule: Q01DX001 (ip), vehicle: carboxymethylcellulose (CMC) 110 % of control

COc1ccc(C2(C#N)CC2)cc1
inactive: [1] 86 % of control | [2] 101 % of control | [3] 88 % of control | [4] 101 % of control | dose: 400.0 mg/kg/injection, schedule: Q01DX009 (ip), vehicle: saline with Tween-80 103 % of control | [5] 103 % of control

CCCCCCCCCCCCCCCCCCCCCCCC(=O)OCC
inactive: [5] 92 % of control

CC(=O)Nc1ccccc1Cl
inactive: dose: 100.0 mg/kg/injection, schedule: Q01DX009 (ip), vehicle: Klucel (hydroxypropylcellulose) (HPC) 100 % of control | dose: 200.0 mg/kg/injection, schedule: Q01DX009 (ip), vehicle: Klucel (hydroxypropylcellulose) (HPC) 105 % of control | dose: 400.0 mg/kg/injection, schedule: Q01DX009 (ip), vehicle: Klucel (hydroxypropylcellulose) (HPC) 108 % of control

Cc1cc(C)c(C)c(NC(=O)NCCCl)c1C
inactive: dose: 100.0 mg/kg/injection, schedule: Q01DX001 (ip), vehicle: Klucel (hydroxypropylcellulose) (HPC) 92 % of control | dose: 200.0 mg/kg/injection, schedule: Q01DX001 (ip), vehicle: Klucel (hydroxypropylcellulose) (HPC) 88 % of control

c1ccc(C2=NC(c3ccccc3)NC2c2ccccc2)cc1 (stereo not drawn)
inactive: dose: 25.0 mg/kg/injection, schedule: Q01DX001 (ip), vehicle: Klucel (hydroxypropylcellulose) (HPC) 95 % of control | dose: 50.0 mg/kg/injection, schedule: Q01DX001 (ip), vehicle: Klucel (hydroxypropylcellulose) (HPC) 98 % of control

CN(C)c1ccc(/C=C/c2ccc3ccccc3[n+]2C)cc1
inactive: dose: 1.5 mg/kg/injection, schedule: Q01DX009 (ip), vehicle: Klucel (hydroxypropylcellulose) (HPC) 103 % of control | dose: 3.0 mg/kg/injection, schedule: Q01DX009 (ip), vehicle: Klucel (hydroxypropylcellulose) (HPC) 97 % of control | dose: 3.12 mg/kg/injection, schedule: Q01DX009 (ip), vehicle: Klucel (hydroxypropylcellulose) (HPC) 100 % of control | dose: 6.0 mg/kg/injection, schedule: Q04DX003 (ip), vehicle: Klucel (hydroxypropylcellulose) (HPC) 107 % of control | dose: 6.25 mg/kg/injection, schedule: Q01DX009 (ip), vehicle: Klucel (hydroxypropylcellulose) (HPC) 104 % of control | dose: 12.0 mg/kg/injection, schedule: Q04DX003 (ip), vehicle: Klucel (hydroxypropylcellulose) (HPC) 107 % of control | dose: 12.5 mg/kg/injection, schedule: Q01DX009 (ip), vehicle: Klucel (hydroxypropylcellulose) (HPC) 107 % of control | dose: 25.0 mg/kg/injection, schedule: Q01DX009 (ip), vehicle: Klucel (hydroxypropylcellulose) (HPC) 96 % of control | dose: 25.0 mg/kg/injection, schedule: Q04DX003 (ip), vehicle: Klucel (hydroxypropylcellulose) (HPC) 86 % of control | dose: 100.0 mg/kg/injection, schedule: Q01DX001 (ip), vehicle: saline 112 % of control | dose: 200.0 mg/kg/injection, schedule: Q01DX001 (ip), vehicle: saline 121 % of control

Cn1cnc(C(N)=S)c1N
inactive: dose: 100.0 mg/kg/injection, schedule: Q01DX009 (ip), vehicle: saline 98 % of control | dose: 100.0 mg/kg/injection, schedule: Q04DX003 (ip), vehicle: saline 107 % of control | dose: 200.0 mg/kg/injection, schedule: Q01DX009 (ip), vehicle: saline 105 % of control | dose: 200.0 mg/kg/injection, schedule: Q04DX003 (ip), vehicle: saline 102 % of control | dose: 400.0 mg/kg/injection, schedule: Q01DX009 (ip), vehicle: saline 96 % of control | dose: 400.0 mg/kg/injection, schedule: Q04DX003 (ip), vehicle: saline 105 % of control
